The values that follow come from BindingDB's records for doi:10.1016/j.bmc.2009.08.051 (Kyoto Prefectural University, 2009).

Some results are limits rather than exact numbers.

The target of one assay is DNA polymerase (Bos taurus, UniProt A0AAA9TD94). Briefly: DNA Polymerase Assay. The note with it: pH 7.5; 37 °C. On the procedure: (§1) For the DNA polymerase reaction, the dehydroaltenusin derivative was dissolved in dimethyl sulfoxide (DMSO) at various concentrations and sonicated for 30 s. Four microlitres of each sonicated sample were mixed with 16 uL of enzyme (final 0.05 units) in reaction buffer, and kept at 0 deg C for 10 min. These inhibitor-enzyme mixtures were added to 16 uL of each enzyme standard reaction mixture containing DNA template-primer and nucleotide, and incubated at 37 deg C for 60 min. Activity without the inhibitor was considered 100%, and the remaining activity at each concentration of the inhibitor was determined relative to this value. One unit of pol activity was defined as the amount of enzyme that catalyzed the incorporation of 1 nmol of dNTP (i.e., dTTP) into synthetic DNA template-primer in 60 min at 37 deg C under the normal reaction conditions.

The next assay concerns the target DNA polymerase beta (Rattus norvegicus, UniProt P06766). Briefly: DNA Polymerase Assay. The note with it: pH 7.5; 37 °C. As for the experimental part:
as §1

With `CCCOc1cc(O)c2c(c1)C1=CC(=O)C(=O)CC1(C)OC2=O` (stereo not given) [dehydroaltenusin derivative, 14], the figures for the IC50 against DNA polymerase and on DNA polymerase beta were 0.18 µM and 35 µM, respectively.
In the same order, the values of `CCCCCCOc1cc(O)c2c(c1)C1=CC(=O)C(=O)CC1(C)OC2=O` (stereo not given) [dehydroaltenusin derivative, 15] are 0.09 µM and 24 µM.
The like results for `CCCCCCCCCCCCOc1cc(O)c2c(c1)C1=CC(=O)C(=O)CC1(C)OC2=O` (stereo not given) [dehydroaltenusin derivative, 16] were, in that order, 0.06 µM and 11 µM.
In the same order, the values of `CC12CC(=O)C(=O)C=C1c1cccc(O)c1C(=O)O2` (stereo not given) [dehydroaltenusin derivative, 20] are 0.24 µM and 89 µM.
With `COc1cc(O)c2c(=O)oc3cc(OCc4ccccc4)c(OCc4ccccc4)cc3c2c1` [dehydroaltenusin derivative, 25], the IC50 on DNA polymerase and against DNA polymerase beta was above 200 µM in each case.
As to `COc1cc(O)c2c(=O)oc3cc(O)c(O)cc3c2c1` [dehydroaltenusin derivative, 26], the half-inhibitory concentration (IC50) on DNA polymerase and on DNA polymerase beta was above 200 µM throughout.
`COc1cc(O)c2c(c1)C1=CC(=O)C=CC1(C)OC2=O` (stereo not given) [dehydroaltenusin derivative, 31]: the IC50 at DNA polymerase and at DNA polymerase beta was above 200 µM in each case.
Take `CC12C=CC(=O)C=C1c1cccc(O)c1C(=O)O2` (stereo not given) [dehydroaltenusin derivative, 32]: the IC50 against DNA polymerase and against DNA polymerase beta was above 200 µM each time.
As for `COc1cc(O)c2c(c1)C1=CC(=O)C(=O)CC1(C)OC2=O` (stereo not given) [dehydroaltenusin], the IC50 was 0.68 µM against DNA polymerase and 64 µM at DNA polymerase beta.
As for `CC12CC(=O)C(=O)C=C1c1cc(O)cc(O)c1C(=O)O2` (stereo not given) [desmethyldehydroaltenusin, 2], the half-maximal inhibitory concentration (IC50) was 0.89 µM against DNA polymerase and 126 µM against DNA polymerase beta.

What is called IC50 is the midpoint of a concentration-inhibition curve. Read a low IC50 as greater potency in that assay.
